Assay results: patent US9284303B2, “Benzimidazole cannabinoid agonists bearing a substituted heterocyclic group” (priority 2006, dated 2016)

Experiments:
[1] = biological target: T1, human CB1 (hCB1) receptor (Homo sapiens, UniProt P21554); assay: Inhibition of forskolin-activated cAMP production upon activation of hCB1 (HTRF), CHO-K1 cells; type: cell-based; conditions: forskolin-activated cAMP, pEC50=-log(EC50); for EC50: CB1 pEC50, hCB1-CHO-K1 cells; for CB1 pEC50: hCB1-CHO-K1 cells
T1 construct: expressed in transfected cells; host or cells: CHO-K1
T1 sequence (P21554 whole entry): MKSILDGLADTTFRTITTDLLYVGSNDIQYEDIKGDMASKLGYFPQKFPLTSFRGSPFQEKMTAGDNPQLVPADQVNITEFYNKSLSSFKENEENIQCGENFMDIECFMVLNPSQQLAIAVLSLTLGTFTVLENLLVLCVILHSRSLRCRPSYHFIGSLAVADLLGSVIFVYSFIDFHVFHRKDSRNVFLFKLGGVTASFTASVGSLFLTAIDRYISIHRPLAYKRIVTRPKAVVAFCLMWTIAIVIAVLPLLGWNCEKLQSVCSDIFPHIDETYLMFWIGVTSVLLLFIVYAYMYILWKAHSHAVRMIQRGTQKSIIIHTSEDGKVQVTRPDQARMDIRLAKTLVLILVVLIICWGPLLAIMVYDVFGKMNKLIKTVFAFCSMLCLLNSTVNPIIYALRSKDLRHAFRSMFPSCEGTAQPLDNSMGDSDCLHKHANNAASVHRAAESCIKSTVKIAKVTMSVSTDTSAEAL
How it was run: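 CHO-K1 cells stably expressing hCB1 (20,000/well) were in HBSS stimulation buffer (1 mM IBMX, 10 mM MgCl2, 0.1% BSA, pH 7.4), with 6 μM forskolin in the compound buffer, 30 min at room temperature in the dark. cAMP was read as HTRF 665/620 ratio, normalized to DMSO and CP55490. Outputs were pEC50 and inhibition at 10 μM relative to CP55490.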

[2] = biological target: T2, human CB2 (hCB2) receptor (Homo sapiens, UniProt P34972); assay: Inhibition of forskolin-activated cAMP production upon activation of hCB2 (HTRF), CHO-K1 cells; type: cell-based; conditions: for ratio CB2 agonism over CB1 agonism: Table C-1, selectivity hCB2 over hCB1; for EC50: read-out: CB2 pEC50 (converted)
T2 construct: expressed in transfected cells; host or cells: CHO-K1
T2 sequence (P34972 whole entry): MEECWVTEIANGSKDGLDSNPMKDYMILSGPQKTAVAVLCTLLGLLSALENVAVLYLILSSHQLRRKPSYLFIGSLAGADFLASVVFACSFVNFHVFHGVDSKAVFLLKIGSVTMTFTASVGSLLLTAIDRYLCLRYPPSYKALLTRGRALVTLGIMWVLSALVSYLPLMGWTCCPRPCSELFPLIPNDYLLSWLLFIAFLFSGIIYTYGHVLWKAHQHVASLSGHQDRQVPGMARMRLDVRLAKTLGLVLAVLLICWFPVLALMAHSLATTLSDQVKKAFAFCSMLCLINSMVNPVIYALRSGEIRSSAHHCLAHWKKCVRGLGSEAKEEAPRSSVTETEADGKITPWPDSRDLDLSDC

[3] = hCB2-CHO-K1 cells, forskolin-activated cAMP, pEC50=-log(EC50)

Structure (SMILES)	EC50 [1] [nM]	melting point [°C]	ratio CB2 agonism over CB1 agonism [2]	EC50 [2, 3] [nM]	CB1 pEC50 [1]	CB2 pEC50 [2, 3]
CC1(C)CC(Cn2c(C(C)(C)C)nc3cc(S(=O)(=O)c4ccnc(F)c4)ccc32)CCO1 (stereo not shown) [Co. No. 149]	> 10000	159.4	>8035	1.26	–	–
COCCOc1cc(S(=O)(=O)c2ccc3c(c2)nc(C(C)(C)C)n3CC2CCOCC2)ccn1 [Co. No. 150]	–	142.9	638	1.26	6.09	–
COCCCOc1cc(S(=O)(=O)c2ccc3c(c2)nc(C(C)(C)C)n3CC2CCOCC2)ccn1 [Co. No. 151]	–	106.5	8035	0.479	5.41	–
CC(C)(C)c1nc2cc(S(=O)(=O)c3ccnc(OCCCO)c3)ccc2n1CC1CCOCC1 [Co. No. 152]	–	161.5	3090	1.17	5.44	–
COCCCc1cc(S(=O)(=O)c2ccc3c(c2)nc(C(C)(C)C)n3CC2CCOCC2)ccn1 [Co. No. 154]	> 10000	143.4	>9016	1.12	–	–
Cn1cc(S(=O)(=O)c2ccc3c(c2)nc(C(C)(C)C)n3CC2CCN(C=O)CC2)cn1 [Co. No. 156]	2510	213.9	617	4.07	–	–
CC(=O)NCCc1cc(S(=O)(=O)c2ccc3c(c2)nc(C(C)(C)C)n3CC2CCOCC2)ccn1 [Co. No. 158]	–	160.3	5888	–	5.08	8.85
CC(=O)N1CCC(Cn2c(C(C)(C)C)nc3cc(S(=O)(=O)c4ccc(C#N)s4)ccc32)CC1 [Co. No. 159]	> 10000	181.2	>4677	2.14	–	–
CO[C@H]1CC[C@@H](Cn2c(C(C)(C)C)nc3cc(S(=O)(=O)c4ccnc(F)c4)ccc32)CC1 [Co. No. 162]	> 10000	133.5	>27542	0.363	–	–
CC(=O)N1CCC(Cn2c(C(C)(C)C)nc3cc(S(=O)(=O)c4cnn(C)c4)ccc32)CC1 [Co. No. 168]	> 10000	166.2	>1230	8.13	–	–
